Assay results: paper PMC8799717, “Pharmacological targeting PIKfyve and tubulin as an effective treatment strategy for double-hit lymphoma” (Cell Death Discovery, 2022)

Columns and labels:
Assay in all cases: biochemical
Design in all cases: KINOMEscan active-site-directed competition binding panel, 468 kinases, percent of DMSO control at 1 uM
Conditions in all cases: KINOMEscan binding, percent of DMSO control; read-out: Ctrl%
[1] = target: T1, TAK1 (Homo sapiens, UniProt O43318)
T1 construct: gene MAP3K7

[2] = target: T2, ABL1(F317L)-phosphorylated (Homo sapiens, UniProt P00519, F317L)
T2 construct: phosphorylated

[3] = target: RIPK4 (Homo sapiens, UniProt P57078)
[4] = target: ERBB2 (Homo sapiens, UniProt P04626)
[5] = target: MET(Y1235D) (Homo sapiens, UniProt P08581, Y1235D)
[6] = target: GRK1 (Homo sapiens, UniProt Q15835)
[7] = target: PIM1 (Homo sapiens, UniProt P11309)
[8] = target: PKMYT1 (Homo sapiens, UniProt Q99640)
[9] = target: MAPKAPK5 (Homo sapiens, UniProt Q8IW41)
[10] = target: T3, RPS6KA5(Kin.Dom.1-N-terminal) (Homo sapiens, UniProt O75582)
T3 construct: Kin.Dom.1-N-terminal

[11] = target: T4, CDK11 (Homo sapiens, UniProt Q9BWU1)
T4 construct: gene CDK19

[12] = target: VRK2 (Homo sapiens, UniProt Q86Y07)
[13] = target: PIM2 (Homo sapiens, UniProt Q9P1W9)
[14] = target: WNK3 (Homo sapiens, UniProt Q9BYP7)
[15] = target: PAK6 (Homo sapiens, UniProt Q9NQU5)
[16] = target: T5, MST4 (Homo sapiens, UniProt Q9P289)
T5 construct: gene STK26

[17] = target: T6, PIP5K2C (Homo sapiens, UniProt Q8TBX8)
T6 construct: gene PIP4K2C

[18] = target: GSK3A (Homo sapiens, UniProt P49840)
[19] = target: CSNK1D (Homo sapiens, UniProt P48730)
[20] = target: PIK3CA(E545K) (Homo sapiens, UniProt P42336, E545K)
[21] = target: EPHB1 (Homo sapiens, UniProt P54762)
[22] = target: NEK11 (Homo sapiens, UniProt Q8NG66)
[23] = target: WEE1 (Homo sapiens, UniProt P30291)
[24] = target: T7, RPS6KA5(Kin.Dom.2-C-terminal) (Homo sapiens, UniProt O75582)
T7 construct: Kin.Dom.2-C-terminal
T7 sequence (O75582 whole entry): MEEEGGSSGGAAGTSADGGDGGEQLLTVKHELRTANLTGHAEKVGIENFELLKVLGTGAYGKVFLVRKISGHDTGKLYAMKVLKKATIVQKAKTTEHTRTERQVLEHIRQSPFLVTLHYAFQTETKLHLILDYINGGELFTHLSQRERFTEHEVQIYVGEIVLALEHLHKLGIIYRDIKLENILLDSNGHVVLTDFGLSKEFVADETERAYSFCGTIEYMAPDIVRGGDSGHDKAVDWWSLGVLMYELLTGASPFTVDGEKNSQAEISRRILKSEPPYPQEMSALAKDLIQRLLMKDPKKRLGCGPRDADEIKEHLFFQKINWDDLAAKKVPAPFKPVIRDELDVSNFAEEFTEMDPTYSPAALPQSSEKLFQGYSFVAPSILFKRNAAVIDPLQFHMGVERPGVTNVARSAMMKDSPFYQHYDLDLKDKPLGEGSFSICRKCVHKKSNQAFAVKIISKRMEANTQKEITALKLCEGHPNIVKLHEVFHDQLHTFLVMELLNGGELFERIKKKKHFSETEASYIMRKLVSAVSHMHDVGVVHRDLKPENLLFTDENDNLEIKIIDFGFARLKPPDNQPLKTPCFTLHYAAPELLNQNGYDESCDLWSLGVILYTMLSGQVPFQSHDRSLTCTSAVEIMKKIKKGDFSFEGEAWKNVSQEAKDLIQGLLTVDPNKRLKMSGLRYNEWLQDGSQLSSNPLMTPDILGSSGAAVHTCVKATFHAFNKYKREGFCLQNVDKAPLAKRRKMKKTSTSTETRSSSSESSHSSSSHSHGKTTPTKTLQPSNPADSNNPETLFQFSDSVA

T3 sequence (O75582 whole entry): as above
Sequence of WEE1 (P30291 whole entry): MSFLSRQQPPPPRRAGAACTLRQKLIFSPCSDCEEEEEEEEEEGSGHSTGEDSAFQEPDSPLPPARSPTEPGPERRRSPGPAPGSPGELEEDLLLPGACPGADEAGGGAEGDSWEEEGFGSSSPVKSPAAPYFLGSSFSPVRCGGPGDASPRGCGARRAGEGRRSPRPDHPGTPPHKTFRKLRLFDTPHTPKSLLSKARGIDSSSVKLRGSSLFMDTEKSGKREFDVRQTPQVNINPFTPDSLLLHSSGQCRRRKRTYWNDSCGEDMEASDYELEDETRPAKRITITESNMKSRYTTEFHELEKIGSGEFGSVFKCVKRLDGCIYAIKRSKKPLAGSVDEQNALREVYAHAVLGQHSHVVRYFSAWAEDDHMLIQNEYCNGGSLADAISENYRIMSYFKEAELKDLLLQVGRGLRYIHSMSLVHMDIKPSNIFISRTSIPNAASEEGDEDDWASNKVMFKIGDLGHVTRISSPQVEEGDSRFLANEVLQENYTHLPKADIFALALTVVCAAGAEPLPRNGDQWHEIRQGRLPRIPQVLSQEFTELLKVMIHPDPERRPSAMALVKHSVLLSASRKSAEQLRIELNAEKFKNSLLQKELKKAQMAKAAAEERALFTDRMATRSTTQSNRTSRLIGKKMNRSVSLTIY
Sequence of PIM2 (Q9P1W9 whole entry): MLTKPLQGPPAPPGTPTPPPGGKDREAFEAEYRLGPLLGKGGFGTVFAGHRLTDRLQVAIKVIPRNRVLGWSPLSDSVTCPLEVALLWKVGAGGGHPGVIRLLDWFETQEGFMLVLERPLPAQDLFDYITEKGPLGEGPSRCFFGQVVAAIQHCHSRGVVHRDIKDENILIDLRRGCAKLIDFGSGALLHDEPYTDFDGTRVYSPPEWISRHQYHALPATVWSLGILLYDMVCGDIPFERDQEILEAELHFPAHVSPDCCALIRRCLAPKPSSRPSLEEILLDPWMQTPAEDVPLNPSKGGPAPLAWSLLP
Sequence of PAK6 (Q9NQU5 whole entry): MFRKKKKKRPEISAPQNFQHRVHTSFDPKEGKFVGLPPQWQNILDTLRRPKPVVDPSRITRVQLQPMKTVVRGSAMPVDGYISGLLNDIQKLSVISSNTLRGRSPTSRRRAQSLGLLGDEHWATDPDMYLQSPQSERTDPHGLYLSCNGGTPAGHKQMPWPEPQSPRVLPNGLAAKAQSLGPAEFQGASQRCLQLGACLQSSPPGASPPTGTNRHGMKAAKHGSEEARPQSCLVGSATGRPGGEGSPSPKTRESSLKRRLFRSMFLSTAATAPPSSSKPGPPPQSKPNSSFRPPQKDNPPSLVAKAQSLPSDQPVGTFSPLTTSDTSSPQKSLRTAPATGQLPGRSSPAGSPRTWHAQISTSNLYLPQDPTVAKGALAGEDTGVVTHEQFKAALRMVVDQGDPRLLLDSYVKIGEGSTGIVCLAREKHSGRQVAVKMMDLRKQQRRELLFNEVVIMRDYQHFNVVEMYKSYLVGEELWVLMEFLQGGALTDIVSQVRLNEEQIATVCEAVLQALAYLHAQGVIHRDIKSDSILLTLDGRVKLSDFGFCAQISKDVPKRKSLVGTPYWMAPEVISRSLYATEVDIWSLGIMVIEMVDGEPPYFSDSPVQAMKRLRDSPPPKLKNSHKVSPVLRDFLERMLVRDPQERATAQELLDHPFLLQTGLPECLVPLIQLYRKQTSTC
T1 sequence (O43318 whole entry): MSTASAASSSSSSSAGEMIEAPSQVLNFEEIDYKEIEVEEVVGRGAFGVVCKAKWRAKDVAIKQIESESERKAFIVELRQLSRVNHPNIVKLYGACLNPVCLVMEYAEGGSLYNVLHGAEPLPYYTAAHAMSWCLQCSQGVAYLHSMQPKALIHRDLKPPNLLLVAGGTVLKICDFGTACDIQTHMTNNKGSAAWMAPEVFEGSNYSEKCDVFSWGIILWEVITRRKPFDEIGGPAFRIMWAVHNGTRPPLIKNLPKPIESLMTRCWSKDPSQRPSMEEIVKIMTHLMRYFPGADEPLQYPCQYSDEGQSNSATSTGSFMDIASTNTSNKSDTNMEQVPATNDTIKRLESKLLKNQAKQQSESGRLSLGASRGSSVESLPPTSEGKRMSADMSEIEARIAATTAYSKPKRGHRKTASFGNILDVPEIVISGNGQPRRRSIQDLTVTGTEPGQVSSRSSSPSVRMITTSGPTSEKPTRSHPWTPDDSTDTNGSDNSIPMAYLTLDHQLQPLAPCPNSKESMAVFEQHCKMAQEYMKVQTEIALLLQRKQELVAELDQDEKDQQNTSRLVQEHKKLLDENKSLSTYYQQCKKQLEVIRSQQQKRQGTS
Sequence of PKMYT1 (Q99640 whole entry): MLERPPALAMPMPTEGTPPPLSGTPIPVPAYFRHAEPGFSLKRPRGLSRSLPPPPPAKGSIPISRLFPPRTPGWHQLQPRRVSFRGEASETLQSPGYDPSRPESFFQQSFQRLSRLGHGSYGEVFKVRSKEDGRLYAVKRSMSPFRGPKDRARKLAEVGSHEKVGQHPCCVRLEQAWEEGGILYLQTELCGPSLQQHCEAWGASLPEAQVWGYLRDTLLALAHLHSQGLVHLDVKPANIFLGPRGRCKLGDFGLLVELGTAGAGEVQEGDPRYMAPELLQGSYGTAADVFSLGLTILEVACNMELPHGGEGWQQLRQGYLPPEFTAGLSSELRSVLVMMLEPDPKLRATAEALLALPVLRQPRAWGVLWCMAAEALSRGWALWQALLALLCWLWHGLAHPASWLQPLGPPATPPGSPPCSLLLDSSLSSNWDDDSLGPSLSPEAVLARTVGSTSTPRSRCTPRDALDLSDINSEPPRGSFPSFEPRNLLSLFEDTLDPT
Sequence of RIPK4 (P57078 whole entry): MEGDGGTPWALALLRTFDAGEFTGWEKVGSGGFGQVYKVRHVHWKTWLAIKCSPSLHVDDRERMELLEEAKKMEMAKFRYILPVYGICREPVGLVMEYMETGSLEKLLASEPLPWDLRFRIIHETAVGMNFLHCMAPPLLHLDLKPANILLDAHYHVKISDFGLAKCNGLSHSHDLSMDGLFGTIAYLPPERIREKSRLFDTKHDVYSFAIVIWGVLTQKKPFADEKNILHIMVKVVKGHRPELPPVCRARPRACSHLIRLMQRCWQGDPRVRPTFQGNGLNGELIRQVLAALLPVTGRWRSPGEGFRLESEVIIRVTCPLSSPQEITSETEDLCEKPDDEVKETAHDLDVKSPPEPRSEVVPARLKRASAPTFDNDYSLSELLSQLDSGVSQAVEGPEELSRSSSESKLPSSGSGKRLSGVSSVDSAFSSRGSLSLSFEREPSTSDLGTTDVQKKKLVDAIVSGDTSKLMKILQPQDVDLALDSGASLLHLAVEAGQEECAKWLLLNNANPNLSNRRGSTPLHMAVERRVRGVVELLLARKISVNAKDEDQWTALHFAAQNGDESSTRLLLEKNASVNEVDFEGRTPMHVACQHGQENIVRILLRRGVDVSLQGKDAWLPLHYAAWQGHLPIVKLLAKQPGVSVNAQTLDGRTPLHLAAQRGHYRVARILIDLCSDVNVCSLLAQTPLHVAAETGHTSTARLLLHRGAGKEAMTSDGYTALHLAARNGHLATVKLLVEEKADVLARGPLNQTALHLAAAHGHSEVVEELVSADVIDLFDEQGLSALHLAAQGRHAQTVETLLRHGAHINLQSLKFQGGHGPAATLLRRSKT
Sequence of GSK3A (P49840 whole entry): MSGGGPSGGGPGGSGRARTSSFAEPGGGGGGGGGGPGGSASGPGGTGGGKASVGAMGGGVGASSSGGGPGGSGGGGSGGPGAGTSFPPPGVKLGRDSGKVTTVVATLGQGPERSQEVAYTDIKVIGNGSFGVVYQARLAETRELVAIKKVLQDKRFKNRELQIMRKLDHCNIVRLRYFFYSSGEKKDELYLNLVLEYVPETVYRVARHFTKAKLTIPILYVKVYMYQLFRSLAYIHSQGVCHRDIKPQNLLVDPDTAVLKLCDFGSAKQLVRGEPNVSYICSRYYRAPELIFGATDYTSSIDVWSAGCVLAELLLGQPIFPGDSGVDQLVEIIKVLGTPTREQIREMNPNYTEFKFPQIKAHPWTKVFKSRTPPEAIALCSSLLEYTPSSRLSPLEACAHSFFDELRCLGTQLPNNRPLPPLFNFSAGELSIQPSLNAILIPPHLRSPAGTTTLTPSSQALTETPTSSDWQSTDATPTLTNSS

With Cc1ccc(NC(=O)c2cccc(C(F)(F)F)c2)cc1Nc1cc(-c2cccnc2)nc2[nH]ccc12 [HZX-02-059] the remaining binding at 1 µM [1] was 73%, the remaining binding at 1 µM [2] was 65% and the remaining binding at 1 µM [3] was 75%. It also gave a remaining binding at 1 µM [4] of 95%, a remaining binding at 1 µM [5] of 95% and a remaining binding at 1 µM [6] of 77%. The remaining binding at 1 µM [7] was 92%, the remaining binding at 1 µM [8] was 96% and the remaining binding at 1 µM [9] was 100%. It also gave a remaining binding at 1 µM [10] of 94%, a remaining binding at 1 µM [11] of 79% and a remaining binding at 1 µM [12] of 100%. It also gave a remaining binding at 1 µM [13] of 88%, a remaining binding at 1 µM [14] of 100% and a remaining binding at 1 µM [15] of 100%. It also gave a remaining binding at 1 µM [16] of 80%, a remaining binding at 1 µM [17] of 43% and a remaining binding at 1 µM [18] of 98%. It also gave a remaining binding at 1 µM [19] of 96%, a remaining binding at 1 µM [20] of 63% and a remaining binding at 1 µM [21] of 39%. The remaining binding at 1 µM [22] was 100%, the remaining binding at 1 µM [23] was 95% and the remaining binding at 1 µM [24] was 99%.
